Data as given in patent publication US20220220152A1, “BIVALENT ANTAGONISTS OF INHIBITORS OF APOPTOSIS PROTEINS” (Hepagene Therapeutics (HK) Limited, priority 2019, published 2022).

Experiments:
XIAP-BIR3 = target: T1, XIAP-BIR3 (Homo sapiens, UniProt P98170); assay: XIAP-BIR3 fluorescence polarization binding assay; conditions: FP, probe AbuRPFK-5FAM (SM5F) 5 nM, XIAP-BIR3 40 nM, 60 min at 25° C.
T1 construct: XIAP-BIR3; purchased Reaction Biology APT-11-374
Procedure, shortened: (§1)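 Fluorescence polarization competition using 5-carboxyfluorescein-labelled peptide probe AbuRPFK-5FAM; protein and compound preincubated 15 min, probe added, then 60 min at 25° C.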

cIAP1-BIR3 = target: T2, cIAP1-BIR3 (Homo sapiens, UniProt Q13490); assay: cIAP1-BIR3 fluorescence polarization binding assay; conditions: FP, probe AbuRPFK-5FAM (SM5F) 5 nM, cIAP1-BIR3 15 nM, 60 min at 25° C.
T2 construct: cIAP1-BIR3; purchased Reaction Biology APT-11-370
T2 sequence (Q13490 253-363 limits assumed): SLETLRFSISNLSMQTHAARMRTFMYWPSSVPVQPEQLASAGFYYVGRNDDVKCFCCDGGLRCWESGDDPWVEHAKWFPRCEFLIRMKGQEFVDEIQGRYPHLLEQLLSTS
Procedure, shortened: as §1

cIAP2-BIR3 = target: T3, cIAP2-BIR3 (Homo sapiens, UniProt Q13489); assay: cIAP2-BIR3 fluorescence polarization binding assay; conditions: FP, probe AbuRPFK-5FAM (SM5F) 5 nM, cIAP2-BIR3 80 nM, 60 min at 25° C.
T3 construct: cIAP2-BIR3; purchased Reaction Biology APT-11-372
T3 sequence (Q13489 238-349 limits assumed): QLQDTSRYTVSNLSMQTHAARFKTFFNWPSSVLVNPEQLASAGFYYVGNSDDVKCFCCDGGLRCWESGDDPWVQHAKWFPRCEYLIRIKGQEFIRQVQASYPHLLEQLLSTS
Procedure, shortened: as §1

T1 sequence (P98170 241-356 limits assumed): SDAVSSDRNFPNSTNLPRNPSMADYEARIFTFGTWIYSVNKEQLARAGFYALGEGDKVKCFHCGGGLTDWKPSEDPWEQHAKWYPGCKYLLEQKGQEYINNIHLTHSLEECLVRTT

Row | IC50 (XIAP-BIR3) [nM] | IC50 (cIAP1-BIR3) [nM] | IC50 (cIAP2-BIR3) [nM] | Structure (SMILES)
1 | 10 to 100 | 1 to 10 | 10 to 100 | CN[C@@H](C)C(=O)N[C@H](C(=O)N1CCC[C@H]1C(=O)N[C@@H]1CCCc2c(NC(=O)c3cccc4c3CCC[C@H]4NC(=O)[C@@H]3CCCN3C(=O)[C@@H](NC(=O)[C@H](C)NC)C3CCOCC3)cccc21)C1CCOCC1 [Compound VII-B, (2S)-1[(2S)-2-[(2S)-2-(methylamino)propanamido]-2-(oxan-4-yl)acetyl]-N-[(1R)-5-[[(5R)-5-[(2S)-1[(2S)-2-[(2S)-2-(methylamino)propanamido]-2-(oxan-4-yl)acetyl]pyrrolidine-2-amido]-5,6,7,8-tetrahydronaphthalen-1-yl]carbamoyl]-1,2,3,4-tetrahydronaphthalen-1-yl]pyrrolidine-2-carboxamide]
2 | 10 to 100 | 1 to 10 | 10 to 100 | CN[C@@H](C)C(=O)N[C@H](C(=O)N1CCC[C@H]1C(=O)N[C@@H]1CCCc2c(-c3cccc(-c4cccc5c4CCC[C@H]5NC(=O)[C@@H]4CCCN4C(=O)[C@@H](NC(=O)[C@H](C)NC)C4CCCCC4)c3)cccc21)C1CCCCC1 [III-A, (2S)-1-[(2S)-2-Cyclohexyl-2-[(2S)-2-(methylamino)propanamido]acetyl]-N-[(1R)-5-(3-[(5R)-5-[(2S)-1-[(2S)-2-cyclohexyl-2-[(2S)-2-(methylamino)propanamido]acetyl]pyrolidine-2-amido]-5,6,7,8-tetrahydronaphthalen-1-yl]phenyl)-1,2,3,4-tetrahydronaphthalen-1-yl]pyrrolidine-2-carboxamide]
3 | 10 to 100 | 1 to 10 | 10 to 100 | CN[C@@H](C)C(=O)N[C@H](C(=O)N1C[C@@H](O)C[C@H]1C(=O)N[C@@H]1CCCc2c(OC/C=C/COc3cccc4c3CCC[C@H]4NC(=O)[C@@H]3C[C@H](O)CN3C(=O)[C@@H](NC(=O)[C@H](C)NC)C3CCCCC3)cccc21)C1CCCCC1 [Compound I-E, (2S,4S)-1-[(2S)-2-cyclohexyl-2-[(2S)-2-(methylamino)propanamido]acetyl]-N-[(1R)-5-[[(2E)-4-[[(5R)-5-[(2S,4S)-1-[(2S)-2-cyclohexyl-2-[(2S)-2-(methylamino)propanamido]acetyl]-4-hydroxypyrrolidine-2-amido]-5,6,7,8-tetrahydronaphthalen-1-yl]oxy]but-2-en-1-yl]oxy]-1,2,3,4-tetrahydronaphthalen-1-yl]-4-hydroxypyrrolidine-2-carboxamide]
4 | 100 to 1000 | 1 to 10 | 10 to 100 | CN[C@@H](C)C(=O)N[C@@H](C)C(=O)N1CCC[C@H]1C(=O)N[C@@H]1CCOc2c(-c3cccc4c3OCC[C@H]4NC(=O)[C@@H]3CCCN3C(=O)[C@H](C)NC(=O)[C@H](C)NC)cccc21 [Compound V-A, (2S)-1-[(2S)-2-[(2S)-2-(methylamino)propanamido]propanoyl]-N-[(4R)-8-[(4R)-4-[(2S)-1-[(2S)-2-[(2S)-2-(methylamino)propanamido]propanoyl]pyrrolidine-2-amido]-3,4-dihydro-2H-1-benzopyran-8-yl]-3,4-dihydro-2H-1-benzopyran-4-yl]pyrrolidine-2-carboxamide]
